The assay deals with T1, G9a (GST-mG9a) (Mus musculus, UniProt Q9Z148).
T1 sequence (Q9Z148 1-1263): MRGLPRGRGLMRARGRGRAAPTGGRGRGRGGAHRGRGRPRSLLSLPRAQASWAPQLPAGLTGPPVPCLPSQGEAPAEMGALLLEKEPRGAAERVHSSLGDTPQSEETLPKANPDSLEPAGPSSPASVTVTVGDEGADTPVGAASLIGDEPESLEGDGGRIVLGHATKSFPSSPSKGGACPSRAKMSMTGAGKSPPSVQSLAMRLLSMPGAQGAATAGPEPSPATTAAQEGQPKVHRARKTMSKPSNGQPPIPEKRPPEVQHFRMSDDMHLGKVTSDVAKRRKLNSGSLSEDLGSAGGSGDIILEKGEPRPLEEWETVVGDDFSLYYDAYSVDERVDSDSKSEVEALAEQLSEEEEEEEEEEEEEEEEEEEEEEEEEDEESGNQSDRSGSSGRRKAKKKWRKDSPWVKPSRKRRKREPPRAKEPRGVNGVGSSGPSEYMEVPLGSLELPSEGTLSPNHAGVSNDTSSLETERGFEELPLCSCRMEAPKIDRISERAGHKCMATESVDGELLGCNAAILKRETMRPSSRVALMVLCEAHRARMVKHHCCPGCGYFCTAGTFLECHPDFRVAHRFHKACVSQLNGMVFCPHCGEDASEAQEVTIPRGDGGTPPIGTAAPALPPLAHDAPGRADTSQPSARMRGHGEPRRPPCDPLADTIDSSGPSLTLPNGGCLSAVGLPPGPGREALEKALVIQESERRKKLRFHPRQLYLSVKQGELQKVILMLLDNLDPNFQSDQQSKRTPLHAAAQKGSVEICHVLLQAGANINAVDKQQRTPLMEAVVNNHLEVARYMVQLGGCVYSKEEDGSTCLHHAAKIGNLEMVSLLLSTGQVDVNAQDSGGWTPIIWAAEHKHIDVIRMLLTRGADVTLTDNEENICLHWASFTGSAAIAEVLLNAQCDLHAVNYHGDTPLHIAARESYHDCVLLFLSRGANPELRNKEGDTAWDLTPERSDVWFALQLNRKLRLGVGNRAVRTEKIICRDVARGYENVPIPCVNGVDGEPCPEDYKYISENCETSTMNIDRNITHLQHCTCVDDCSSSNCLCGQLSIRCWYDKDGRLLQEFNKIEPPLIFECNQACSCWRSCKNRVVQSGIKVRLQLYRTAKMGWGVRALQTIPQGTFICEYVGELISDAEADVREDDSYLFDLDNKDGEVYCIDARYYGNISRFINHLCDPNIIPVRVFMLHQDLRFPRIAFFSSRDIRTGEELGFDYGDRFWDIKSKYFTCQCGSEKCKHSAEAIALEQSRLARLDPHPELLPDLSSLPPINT
The experiment in a line: Assay for measuring histone methyltransferase activity using peptidyl MCA, inhibitor evaluation with G9a. The assay is classed as biochemical. The settings on record: IC50 for G9a, Ac-histone H3 (1-9)-MCA. As for the experimental part: When G9a was adopted as a histone methyltransferase, the following method was used. 10 μL of 2×HMT buffer (100 mM Tris-HCl (pH 8.5), 20 mM MgCl2, 40 mM KCl, 20 mM 2-mercaptoethanol, 500 mM sucrose), 0.4 μL of a BSA solution (150 μg/mL), 2 μL of GST-mG9a (0, 0.5 μg/μL), 1 μL of gliotoxin (any of various concentrations) and 2.6 μL of distilled water were mixed and then incubated at room temperature for 1 hour. Then, 2 μL of SAM (10 mM) and 2 μL of a peptidyl MCA (Ac-histone H3 (1-9)-MCA) solution (0.6 mM) were added thereto, which was then incubated at 37° C. for 1 hour. Thereafter, 30 μL of a trypsin solution (20 mg/mL) was added thereto, followed by incubation at 37° C. for 15 minutes. Then, the fluorescence intensity of the solution was measured at an excitation wavelength (λex) of 390 nm and a fluorescence wavelength (λem) of 460 nm. The final concentration of GST-mG9a during the measurement of fluorescence intensity was 0.05 μg/μL. The results of the assay for measuring histone methyltransferase activity are shown in the middle panel of FIG. 18.
The rate of the inhibition of methylation by gliotoxin was calculated from the results in the left panel and the middle panel of FIG. 18. Specifically, the value (%) was calculated which was obtained by dividing “a value obtained by subtracting “the fluorescence intensity of AMC when peptidase was added but gliotoxin was not added” from “the fluorescence intensity of AMC when both peptidase and gliotoxin were added”” by “a value obtained by subtracting “the fluorescence intensity of AMC when peptidase was added but gliotoxin was not added” from “the fluorescence intensity of AMC when no peptidase or gliotoxin was added”” and multiplying the resultant value by 100. The rate (%) of the inhibition of methylation by gliotoxin is shown in the right panel of FIG. 18.
Specifically, the assay for measuring histone methyltransferase activity was carried out by the same method as the method using G9a […] in Example 8 except for using S-Adenosyl-L-homocysteine (SAH) in place of gliotoxin. SAH is a by-product of the methylation reaction and is known to inhibit histone methyltransferase in a negative feedback manner. […] The rate (%) of the inhibition of methylation by SAH was calculated from the results in the left panel of FIG. 19. The results are shown in the right panel of FIG. 19.
When G9a was adopted as a histone methyltransferase, the following method was used. […] Then, the fluorescence intensity of the solution was measured at an excitation wavelength (λex) of 330 nm and a fluorescence wavelength (λem) of 380 nm or at an excitation wavelength (λex) of 390 nm and a fluorescence wavelength (λem) of 460 nm. The final concentration of GST-mG9a during the measurement of fluorescence intensity was 0 μg/μL or 0.05 μg/μL.

pIC50: −log10 of the molar value.

Take `CN1C(=O)[C@]23CC4=CC=C[C@H](O)[C@H]4N2C(=O)[C@@]1(CO)SS3` [gliotoxin]: the pIC50 (as a rule, −log10 of the IC50, conventionally taken in molar units) is 5.55 (Example 8, AMC fluorescence λex 390 nm/λem 460 nm, FIG. 18); 5.74 (Example 14, AMC fluorescence λex 390 nm/λem 460 nm, left panel of FIG. 27); 5.55 (Example 14, peptidyl MCA fluorescence λex 330 nm/λem 380 nm, right panel of FIG. 27).
